Results on 15 compounds are retold here after ChEMBL document CHEMBL5625183, “Discovery of a novel dual-target inhibitor of CDK12 and PARP1 that induces synthetic lethality for treatment of triple-negative breast cancer” (Eur J Med Chem, 2023).

In series [1] the test system is MDA-MB-436. Put plainly: Antiproliferative activity against human MDA-MB-436 cells assessed as inhibition of cell growth incubated for 24 hrs by MTT assay. Format: functional, cell-based. On the technique in general: Tetrazolium assays rely on reduction of a dye to a coloured formazan, in cell work by metabolically active cells.
The test system of series [2] is MDA-MB-468. Put plainly: Antiproliferative activity against human MDA-MB-468 cells assessed as inhibition of cell growth incubated for 24 hrs by MTT assay. Format: functional, cell-based. As to conditions: MDA-MB-468, 24 h.
Series [3] deals with MDA-MB-231. Put plainly: Antiproliferative activity against human MDA-MB-231 cells assessed as inhibition of cell growth incubated for 24 hrs by MTT assay. It is filed as functional, cell-based. The conditions noted are these: MDA-MB-231, 24 h.
Series [4] concerns the target Poly [ADP-ribose] polymerase 2 (Homo sapiens, UniProt Q9UGN5). Put plainly: Inhibition of PARP2 (unknown origin) incubated for 1 hr by ELISA analysis. (In an ELISA, binding on a coated surface is turned into a signal by an enzyme label.)
Series [5] addresses T1, Cyclin-dependent kinase 12 (Homo sapiens, UniProt Q9NYV4). Put plainly: Inhibition of CDK12 (unknown origin) in presence of ATP by kinase-glo plus luminescent assay. (In general: Kinase-Glo measures the ATP left after a reaction by luminescence.)
Target sequence in this assay (Q9NYV4 whole entry): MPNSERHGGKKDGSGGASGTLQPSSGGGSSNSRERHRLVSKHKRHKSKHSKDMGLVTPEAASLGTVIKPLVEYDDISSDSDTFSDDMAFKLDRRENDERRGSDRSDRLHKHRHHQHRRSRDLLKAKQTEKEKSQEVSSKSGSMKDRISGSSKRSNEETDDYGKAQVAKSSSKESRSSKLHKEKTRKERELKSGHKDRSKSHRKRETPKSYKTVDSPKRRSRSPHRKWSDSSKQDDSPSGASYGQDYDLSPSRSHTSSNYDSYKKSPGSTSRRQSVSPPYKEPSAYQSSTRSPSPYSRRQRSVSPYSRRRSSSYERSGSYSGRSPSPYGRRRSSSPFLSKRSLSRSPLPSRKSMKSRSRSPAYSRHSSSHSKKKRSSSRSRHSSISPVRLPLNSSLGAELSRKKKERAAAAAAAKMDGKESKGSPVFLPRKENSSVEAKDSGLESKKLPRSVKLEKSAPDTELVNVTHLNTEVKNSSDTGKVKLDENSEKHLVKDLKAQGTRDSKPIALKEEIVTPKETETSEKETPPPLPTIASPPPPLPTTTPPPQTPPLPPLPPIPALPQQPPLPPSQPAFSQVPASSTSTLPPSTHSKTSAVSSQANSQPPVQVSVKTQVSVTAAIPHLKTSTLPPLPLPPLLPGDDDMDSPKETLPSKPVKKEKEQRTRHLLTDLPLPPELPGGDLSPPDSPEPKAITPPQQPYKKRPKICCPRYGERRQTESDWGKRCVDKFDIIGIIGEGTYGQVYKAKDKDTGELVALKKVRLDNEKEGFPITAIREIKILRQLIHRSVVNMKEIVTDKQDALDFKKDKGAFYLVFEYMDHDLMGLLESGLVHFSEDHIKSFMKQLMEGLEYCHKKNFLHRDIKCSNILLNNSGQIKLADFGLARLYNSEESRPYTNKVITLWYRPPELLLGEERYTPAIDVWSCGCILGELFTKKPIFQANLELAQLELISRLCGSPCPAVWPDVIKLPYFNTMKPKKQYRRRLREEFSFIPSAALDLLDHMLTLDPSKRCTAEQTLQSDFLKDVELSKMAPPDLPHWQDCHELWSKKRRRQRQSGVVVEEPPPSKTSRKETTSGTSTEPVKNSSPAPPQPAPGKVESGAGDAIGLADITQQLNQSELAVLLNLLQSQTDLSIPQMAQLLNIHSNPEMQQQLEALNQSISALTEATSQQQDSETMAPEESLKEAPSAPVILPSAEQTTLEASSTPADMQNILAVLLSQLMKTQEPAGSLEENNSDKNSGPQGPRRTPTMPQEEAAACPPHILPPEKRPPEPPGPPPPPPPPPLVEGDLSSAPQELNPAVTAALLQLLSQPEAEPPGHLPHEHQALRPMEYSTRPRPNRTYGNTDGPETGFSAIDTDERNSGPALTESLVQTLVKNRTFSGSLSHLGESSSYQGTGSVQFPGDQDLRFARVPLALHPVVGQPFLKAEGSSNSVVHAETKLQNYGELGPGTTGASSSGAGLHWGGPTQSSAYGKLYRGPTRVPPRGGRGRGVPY
Series [6] concerns the target T1, Cyclin-dependent kinase 12. Put plainly: Inhibition of CDK12 (unknown origin) at 1 uM in presence of ATP by kinase-glo plus luminescent assay relative to control.
Target sequence in this assay (Q9NYV4 whole entry, looked up): as the sequence (Q9NYV4 whole entry) above
Series [7] addresses Poly [ADP-ribose] polymerase 1 (Homo sapiens, UniProt P09874). Put plainly: Inhibition of PARP1 (unknown origin) incubated for 1 hr by ELISA analysis.
For series [8], the system named is MDA-MB-231. Put plainly: Antiproliferative activity against human MDA-MB-231 cells assessed as inhibition of cell growth incubated for 48 hrs by MTT assay. Format: functional, cell-based. The conditions noted are these: MDA-MB-231, 48 h.
Series [9] has as its system MDA-MB-436. Put plainly: Antiproliferative activity against human MDA-MB-436 cells assessed as inhibition of cell growth incubated for 48 hrs by MTT assay. Format: functional, cell-based. The conditions noted are these: MDA-MB-436, 48 h.
Series [10] deals with MDA-MB-436. Put plainly: Antiproliferative activity against human MDA-MB-436 cells assessed as inhibition of cell growth incubated for 72 hrs by MTT assay. It is filed as functional, cell-based. The conditions noted are these: MDA-MB-436, 72 h.
Series [11] concerns MDA-MB-231. Put plainly: cells. As to conditions: Homo sapiens, MDA-MB-231, 72 h.
The test system of series [12] is MDA-MB-468. Put plainly: Antiproliferative activity against human MDA-MB-468 cells assessed as inhibition of cell growth incubated for 48 hrs by MTT assay. As to conditions: MDA-MB-468, 48 h. Format: functional, cell-based.
The subject of series [13] is MDA-MB-468. Put plainly: Antiproliferative activity against human MDA-MB-468 cells assessed as inhibition of cell growth incubated for 72 hrs by MTT assay. It is filed as functional, cell-based. The conditions noted are these: MDA-MB-468, 72 h.
Series [14] can be described thus: Metabolic stability in human liver microsome assessed as half life in presence of NADPH incubated upto 60 mins by LC-MS/MS analysis. The conditions noted are these: liver microsomes. It is filed as ADME.
The nature of series [15]: Metabolic stability in BALB/c mouse liver microsome assessed as intrinsic clearance in presence of NADPH incubated upto 60 mins by LC-MS/MS analysis. Format: ADME. As to conditions: liver microsomes, read-out: CLH.
Series [16] is described as follows: Metabolic stability in BALB/c mouse liver microsome assessed as half life in presence of NADPH incubated upto 60 mins by LC-MS/MS analysis. Format: ADME. The conditions noted are these: liver microsomes.
The nature of series [17]: Metabolic stability in human liver microsome assessed as intrinsic clearance in presence of NADPH incubated upto 60 mins by LC-MS/MS analysis. Format: ADME. The conditions noted are these: liver microsomes, read-out: CLH.
Series [18] relates to MDA-MB-231. Put plainly: Synergistic antiproliferative activity against human MDA-MB-231 cells in presence of Olaparib incubated for 24 hrs by MTT assay. It is filed as functional, cell-based.

Where “and” joins values, the source holds several entries; their conditions need not be identical. Equal entries are not always repeated. Calls of active or inactive are those of the source. The calls are words filed in the database; no cut-off is given here. Some results are limits rather than exact numbers.

Sequence of Poly [ADP-ribose] polymerase 1 (P09874 whole entry): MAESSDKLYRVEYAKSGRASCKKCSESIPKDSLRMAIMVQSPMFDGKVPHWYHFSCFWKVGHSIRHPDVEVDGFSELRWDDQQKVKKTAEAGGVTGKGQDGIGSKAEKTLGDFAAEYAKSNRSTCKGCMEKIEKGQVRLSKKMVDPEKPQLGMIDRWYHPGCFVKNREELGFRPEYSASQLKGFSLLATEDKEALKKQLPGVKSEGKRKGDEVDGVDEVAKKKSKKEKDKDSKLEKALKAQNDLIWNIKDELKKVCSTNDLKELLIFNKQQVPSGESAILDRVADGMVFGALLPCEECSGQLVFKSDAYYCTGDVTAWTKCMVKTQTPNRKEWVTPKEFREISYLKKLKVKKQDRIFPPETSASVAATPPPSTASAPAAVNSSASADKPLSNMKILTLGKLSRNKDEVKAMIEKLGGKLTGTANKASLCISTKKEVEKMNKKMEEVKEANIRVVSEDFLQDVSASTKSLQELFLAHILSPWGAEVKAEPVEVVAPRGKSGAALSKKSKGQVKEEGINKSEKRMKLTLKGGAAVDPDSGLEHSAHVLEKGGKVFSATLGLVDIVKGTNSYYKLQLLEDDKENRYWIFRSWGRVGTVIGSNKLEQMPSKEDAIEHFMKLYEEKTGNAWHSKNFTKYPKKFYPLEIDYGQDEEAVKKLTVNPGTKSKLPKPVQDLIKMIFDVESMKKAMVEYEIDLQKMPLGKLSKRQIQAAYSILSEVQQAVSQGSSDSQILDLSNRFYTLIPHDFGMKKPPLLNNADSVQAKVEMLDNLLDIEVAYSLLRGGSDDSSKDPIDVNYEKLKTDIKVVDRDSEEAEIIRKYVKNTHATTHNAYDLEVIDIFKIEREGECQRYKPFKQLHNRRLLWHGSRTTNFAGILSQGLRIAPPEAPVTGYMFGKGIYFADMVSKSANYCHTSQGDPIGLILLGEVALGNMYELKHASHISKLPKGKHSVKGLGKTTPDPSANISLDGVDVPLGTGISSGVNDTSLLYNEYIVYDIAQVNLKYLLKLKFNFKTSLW
Sequence of Poly [ADP-ribose] polymerase 2 (Q9UGN5 whole entry): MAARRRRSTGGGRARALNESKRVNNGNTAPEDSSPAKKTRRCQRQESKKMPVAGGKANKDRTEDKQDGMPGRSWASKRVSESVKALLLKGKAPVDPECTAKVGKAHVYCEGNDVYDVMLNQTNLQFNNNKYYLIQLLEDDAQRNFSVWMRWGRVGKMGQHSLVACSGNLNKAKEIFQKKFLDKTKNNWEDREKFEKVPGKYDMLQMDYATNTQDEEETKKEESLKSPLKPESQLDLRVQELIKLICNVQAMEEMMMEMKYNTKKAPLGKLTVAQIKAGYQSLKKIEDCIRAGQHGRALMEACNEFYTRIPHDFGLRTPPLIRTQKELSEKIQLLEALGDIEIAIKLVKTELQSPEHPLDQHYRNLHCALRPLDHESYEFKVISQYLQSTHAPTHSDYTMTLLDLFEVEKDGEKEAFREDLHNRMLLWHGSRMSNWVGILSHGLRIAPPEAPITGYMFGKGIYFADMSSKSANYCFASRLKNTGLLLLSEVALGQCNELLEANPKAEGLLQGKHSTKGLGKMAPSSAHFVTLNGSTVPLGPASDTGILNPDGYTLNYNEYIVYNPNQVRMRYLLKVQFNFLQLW

Take `NC(=O)c1cccc2[nH]c(NC(=O)c3cccc(C(=O)N4CCC(Nc5ncc(Br)cn5)CC4)c3)nc12`: the IC50 in series [1] (Homo sapiens, MDA-MB-436, 24 h) turned out to be 11.1 µM; in series [2] it was 12.4 µM; in series [3], 10.2 µM; in series [4] it was 0.032 µM; in [5], 0.344 µM; in series [7], 0.037 µM. Moreover, the inhibition in series [6] was 75.4%.
Consider `O=C(c1cc(Cc2n[nH]c(=O)c3ccccc23)ccc1F)N1CCN(C(=O)C2CC2)CC1` [OLAPARIB], for which the IC50 in series [8] came to 1.7 µM; in [9], 1.5 µM; in series [1] (Homo sapiens, MDA-MB-436, 24 h) it was 4.6 µM; in series [2], 3.4 µM; in series [10] it was 0.7 µM; in series [3] it was 3.5 µM. The IC50 in [11] worked out at 0.8 µM; in series [12], 1.4 µM; in [13], 0.6 µM. Also, in series [6], the inhibition turned out to be 7%.
For the compound `NC(=O)c1cccc2[nH]c(NC(=O)c3cccc(C(=O)N4CCC(Nc5ncc(C(F)(F)F)cn5)CC4)c3)nc12`, the IC50 in series [1] (Homo sapiens, MDA-MB-436, 24 h) came out at 11.2 µM; in series [2] it was 10.5 µM; in series [3], 10.3 µM; in [4], 0.131 µM; in [5], 0.269 µM; in [7] it was 0.167 µM. In series [6], the inhibition was 79.4%.
`NC(=O)c1cccc2[nH]c(NC(=O)c3cccc(C(=O)N4CCC(Nc5ncc(Cl)cn5)CC4)c3)nc12`: the 50% inhibitory concentration (IC50) in series [1] (Homo sapiens, MDA-MB-436, 24 h) was 12.6 µM; in series [2], 14.2 µM; in [3], 15.6 µM; in series [4] it was 0.035 µM; in series [5] it was 0.554 µM; in series [7] it was 0.043 µM. Besides, the inhibition in [6] was determined as 68.3%.
Regarding `NC(=O)c1cccc2[nH]c(NC(=O)c3ccc(CN4CCC(Nc5ncc(F)cn5)CC4)cc3)nc12`, the half-inhibitory concentration (IC50) in series [1] (Homo sapiens, MDA-MB-436, 24 h) was greater than 30 µM; in series [2] it was greater than 30 µM; in [3] it was greater than 30 µM. Also, the inhibition in series [6] came to 30.3%.
For `NC(=O)c1cccc2[nH]c(NC(=O)c3cccc(C(=O)N4CCC(Nc5ncc(F)cn5)CC4)c3)nc12`, the concentration for half-maximal inhibition (IC50) in [1] (Homo sapiens, MDA-MB-436, 24 h) was 28.7 µM; in series [2], greater than 30 µM; in series [3] it was greater than 30 µM; in [4], 0.065 µM; in series [5], greater than 10 µM; in series [7], 0.071 µM. In addition, the inhibition in [6] worked out at 24.3%.
As to `Cc1cnc(NC2CCN(C(=O)c3cccc(C(=O)Nc4nc5c(C(N)=O)cccc5[nH]4)c3)CC2)nc1`, the IC50 in series [1] (Homo sapiens, MDA-MB-436, 24 h) is greater than 30 µM; in series [2], greater than 30 µM; in [3], greater than 30 µM. The inhibition in series [6] was 1.3%.
`NC(=O)c1cccc2[nH]c(NC(=O)c3ccc(C(=O)N4CCC(Nc5ncc(Cl)cn5)CC4)cc3)nc12`: the IC50 in [1] (Homo sapiens, MDA-MB-436, 24 h) stood at 20.8 µM; in [2] it was 23.5 µM; in [3], 24.9 µM. Besides, the inhibition in series [6] turned out to be 50.7%.
On the same counts, the results for `N#Cc1cnc(N2CCN(C(=O)c3cccc(C(=O)Nc4nc5c(C(N)=O)cccc5[nH]4)c3)CC2)nc1` are greater than 30 µM, greater than 30 µM, greater than 30 µM and 32.6%.
For the compound `O=C(c1ccc(F)cc1)C1CCN(CCn2c(=O)[nH]c3ccccc3c2=O)CC1` [KETANSERIN], the half-life in series [14] worked out at 33.6 min; in series [16], 29.4 min. The CLint scaled in series [15] amounted to 185 mL/min/kg; in series [17] it was 47.7 mL/min/kg.
`N#Cc1cnc(NC2CCN(C(=O)c3ccc(C(=O)Nc4nc5c(C(N)=O)cccc5[nH]4)cc3)CC2)nc1`: the half-inhibitory concentration (IC50) is greater than 30 µM in [1] (Homo sapiens, MDA-MB-436, 24 h); greater than 30 µM in series [2]; greater than 30 µM in series [3]. For the same compound, in series [6], the inhibition came out at 27.5%.
Turning to `NC(=O)c1cccc2[nH]c(NC(=O)c3ccc(C(=O)N4CCN(c5ccc(C(F)(F)F)cn5)CC4)cc3)nc12`, the IC50 in series [1] (Homo sapiens, MDA-MB-436, 24 h) was 25.7 µM; in series [2], 27.3 µM; in [3] it was 26.8 µM. For the same compound, the inhibition in series [6] was 39.8%.
Take `CN(C)C/C=C/C(=O)Nc1ccc(C(=O)N2CCC[C@@H](Nc3ncc(Cl)c(-c4c[nH]c5ccccc45)n3)C2)cc1`: the IC50 was 17.9 µM in [8]; 18.1 µM in series [9]; 14.3 µM and 4.6 µM in series [1] (mda-mb-436); 6.4 µM in [10]; 7.1 µM in [11]; 14.4 µM in [12]. For the same compound, the IC50 in [13] turned out to be 5.8 µM. In addition, the result in series [18] was Active. The inhibition in series [6] is 98.6%.
With `NC(=O)c1cccc2[nH]c(NC(=O)c3ccc(S(=O)(=O)N4CCC(Nc5ncc(C(F)(F)F)cn5)CC4)cc3)nc12`, the IC50 came out at 27.1 µM in [1] (Homo sapiens, MDA-MB-436, 24 h); 25.3 µM in series [2]; 26.7 µM in series [3]. For the same compound, the inhibition in series [6] came to 69.9%.
The like results for `NC(=O)c1cccc2[nH]c(NC(=O)c3ccc(C(=O)N4CCC(Nc5ccc(I)cn5)CC4)cc3)nc12` were, in that order, greater than 30 µM, greater than 30 µM, greater than 30 µM and 29.8%.

Broadly, the IC50 is the midpoint of a concentration-inhibition curve. The term inhibition denotes the drop in the measured response relative to a control, in per cent. The term half-life denotes the time in which the quantity being followed falls by half.
